Assay results taken from patent publication US20040110825A1, “Method for treating sepsis” (priority 2003, published 2004).

How the values were obtained:
[1] = system: patients with severe sepsis; assay: Phase 2 multicenter, double-blind, placebo-controlled trial: 28-day all-cause mortality; assay type: in vivo, human; settings: for effect on mortality compared to placebo: administration started within 24 hours after first organ failure, continued up to 7 days
Method: FIG. 3 represents a plot of 28-day mortality by treatment (Y-axis) against time after first organ failure at which a sPLA2 inhibitor compound of formula I was administered (X-axis). […] Administration of a “high dose” of sPLA2 inhibitor compound of formula (I), at the same time frame (i.e., less than 12 hours after first organ failure) was associated with a mortality of 5.4% (bar 3). […] The efficacy of a sPLA2 inhibitor administered at 0-24 hours, preferably 0-12 hours, after first organ failure is particularly significant when a “high dose” sPLA2 inhibitor compound is administered.
The data were analyzed using the Cochran-Mantel-Haenszel test adjusted for the trial primary stratification factors at a two-sided 5% significance level. The overall treatment effect as well as for pair-wise comparisons were analyzed.
Study participants were included in the study if they met all of the criteria listed below. It is anticipated that almost all patients meeting these criteria would have been in an acute care area of the hospital such as an intensive care unit, step-down unit, emergency ward, or recovery room. The events satisfying these inclusion criteria must have been attributable to the onset of sepsis and not attributable to an underlying disease process or to the effects of concomitant therapy.
[3] Have had at least one of the following sepsis-induced organ failures within the 24-hour time period immediately preceding entry into the study:
The mortality data from the study are shown in diagrams 1 through 3.

COc1cc(OC)c2c3c(n(Cc4ccccc4)c2c1)CCCC3C(=O)NN (stereo not shown)
melting point: 189 to 190 °C

NC(=O)C1CCCc2c1c1cc(OCCCP(=O)(O)O)ccc1n2Cc1ccccc1 (stereo not shown)
melting point: 200 to 201 °C

CCCCCCCCc1cc2c(cc1OCCCP(=O)(O)O)c1c(n2Cc2ccccc2)CCCC1C(N)=O (stereo not shown)
melting point: 160 to 162 °C

CCc1cc2c(cc1OCCCP(=O)(O)O)c1c(n2Cc2ccccc2)CCCC1C(N)=O (stereo not shown)
melting point: 235 to 238 °C (dec.)

COc1ccc2c(c1)c1c(n2Cc2ccccc2)CCCC1C(N)=O (stereo not shown)
melting point: 154 to 156 °C

NC(=O)C1CCCc2c1c1cc(OCCCC(=O)O)ccc1n2Cc1ccccc1 (stereo not shown)
melting point: 199 to 200 °C

CCc1c(C(=O)C(N)=O)c2c(OCC(=O)O)cccc2n1Cc1ccccc1 [compound (Vb)]
effect on mortality compared to placebo [1]: significant reduction in mortality | effect on mortality compared to placebo ([1]; listed as LY315920): statistically significant reduction in mortality | 28 day mortality by treatment ([1]; high dose (target 800 ng/mL), administered between 12 and 24 hours after first organ failure, FIG. 3 bar 6, placebo 35.1%): 31.5% | 28 day mortality by treatment ([1]; high dose (target plasma concentration 800 ng/mL), administered less than 12 hours after first organ failure, FIG. 3 bar 3, placebo 42.9%): 5.4% | 28 day mortality by treatment ([1]; low dose (target 200 ng/mL), administered between 12 and 24 hours after first organ failure, FIG. 3 bar 5, placebo 35.1%): 38.2% | 28 day mortality by treatment ([1]; low dose (target plasma concentration 200 ng/mL), administered less than 12 hours after first organ failure, FIG. 3 bar 2, placebo 42.9%): 19.2% | reduction in mortality, significance ([1]; low dose and high dose administered at 0-12 hours after first organ failure, Cochran-Mantel-Haenszel test, two-sided 5%): statistically significant
